According to patent publication US11203615B2, “Cancer treatment drug” (NATIONAL UNIVERSITY CORPORATION HOKKAIDO UNIVERSITY, priority 2017, dated 2021):
Values belong to the compound of their own block, whether it stands above or below them. Residues, ends and D or L forms follow the SMILES beside them.

Key:
[1] = system: Human pancreatic cancer cells (PK-9); experiment: Tumor growth in nude mice with PK-9 cells transplanted on the back, intraperitoneal administration; format: in vivo, nude mouse; details: i.p. five times per week, day 7 to day 35 after transplantation
Procedure: Human pancreatic cancer cells (PK-9) were transplanted to the back of each nude mouse (Balb/cA Jcl nu/nu mice, female, distributor: CLEA Japan, Inc.). The peptide of the present invention RRRRRRRRRRR-GGG-MGLKMSCLKGFQMCV (SEQ ID NO: 4), the peptide RRRRRRRRRRR-GGG-MGLKMAAAKGFQAAA (SEQ ID NO: 8), or PBS was intraperitoneally administered five times per week from day 7 to day 35 after the transplantation. During this period, body weight and tumor volume of the animals were measured, and fluorescence images were taken. On day 35 after the transplantation, tumor was resected, and the weight was measured. […] The mean tumor weight was approximately 50 mg for the group with administration of the peptide of the present invention (represented as DB in FIG. 6), and, by contrast, approximately 100 mg to 110 mg for the other two groups.

[2] = biological target: T1, C16orf74 protein dimer (Homo sapiens, UniProt Q96GX8); experiment: Inhibition of dimer formation of C16orf74 protein in human pancreatic cancer cells and NHDFs (FIG. 3); format: cell-based; design: PK-1 and PK-9 (C16orf14 high expression) are compared to Panc1 and Miapaca2 (low expression); endogenous in cells; host or cells: PK-1, PK-9, Panc-1, Miapaca-2, NHDF
T1 sequence (Q96GX8 whole entry): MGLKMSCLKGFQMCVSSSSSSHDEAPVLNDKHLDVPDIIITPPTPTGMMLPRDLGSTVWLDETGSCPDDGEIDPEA
Procedure: The same experiment as the above (3) was conducted by using the peptide RRRRRRRRRRR-GGG-MGLKMSCLKGFQMCV (SEQ ID NO: 4) (represented as 11R-C16orf74-DB in FIG. 3(a)), the peptide RRRRRRRRRRR-GGG-MGLKMSALKGFQMAV (SEQ ID NO: 7) (represented as 11R-C16orf74 C7A-C14A in FIG. 3(b)), and the peptide RRRRRRRRRRR-GGG-MGLKMAAAKGFQAAA (SEQ ID NO: 8) (represented as 11R-C16orf74-6-8A-13-15A in FIG. 3(c)) with different concentrations to examine inhibition of the dimer formation of C16orf74 protein. For the cells, four types of human pancreatic cancer cells (PK-1, PK-9, Panc-1, Miapaca-2) and normal human dermal fibroblasts (NHDFs) were used. The results are shown in FIGS. 3(a), 3(b), and 3(c), which are 24 hour WST assays in which PK-1 and PK-9 (C16orf14 high expression) are compared to Panc1 and Miapaca2 (low expression). A p-value of p<0.05 was obtained at 30 μM.

[3] = biological target: T1, C16orf74 protein dimer; experiment: Inhibition of dimer formation of C16orf74 protein, pull-down assay in cotransfected HEK293T cells; format: cell-based; details: 40 μM peptide, 24 hours
Procedure: Pull-down assay was used for this verification. HEK293T cells were cotransfected with a vector to express a protein of Flag-tagged C16orf74 protein (pCAGGS-C16orf74-3×Flag) and a vector to express a protein of HA-tagged C16orf74 protein (pCAGGS-C16orf74-HA), and 24 hours thereafter a cell lysate was obtained and immunoprecipitation was carried out with agarose beads with an HA antibody attached thereto. The resulting immunoprecipitate was subjected to electrophoresis, and blotted with a Flag antibody. Experiment was conducted in three parallel systems. In the figure, MOCK represents a case that empty vectors of pCAGGS were provided with a Flag tag and an HA tag and HEK293T cells were cotransfected therewith. A band of the Flag-tagged C16orf74 protein was found at an intended level ([…]).
HEK293T cells were transfected with pCAGGS-C16orf74-3×Flag and pCAGGS-C16orf74-HA, and cultured in the presence and absence of 40 μM of the peptide RRRRRRRRR-GGG-MGLKMSCLKGFQMCV (SEQ ID NO: 6) for 24 hours, and thereafter a band of the dimer was detected in the same manner as descried in (1).

[4] = system: PK-9 cells; experiment: Tumor growth in nude mice with subcutaneously injected PK-9 cells, peritumoral subcutaneous injection; format: in vivo; details: 10 mg/kg/mouse s.c. near tumor five times per week, 3 weeks
Procedure: PK-9 cells were injected into the back of each nude mouse (Balb/cA Jcl nu/nu mice, female, distributor: CLEA Japan, Inc.). Two weeks after the injection, the peptide of the present invention RRRRRRRRRRR-GGG-MGLKMSCLKGFQMCV (SEQ ID NO: 4), the peptide RRRRRRRRRRR-GGG-MGLKMAAAKGFQAAA (SEQ ID NO: 8), or PBS was injected into the subcutaneous tissue in the vicinity of tumor five times per week (10 mg/kg/mouse). The administration period was 3 weeks. At the end of the administration period, tumor was resected and the tumor weight was measured. […] The mean tumor weight of the group with administration of the peptide of the present invention (SEQ ID NO: 4) was approximately 250 mg (group 11R-DB in FIG. 8).

[5] = system: PK-9 cells expressing luciferase (PK-9-td Tomato-luc2); experiment: Tumor survival and nodulation in nude mice with peritoneally disseminated PK-9-td Tomato-luc2 cells; format: in vivo; details: 1 mg/kg/mouse five times per week, day 0 to day 35; imaging days 3-35
Procedure: PK-9 cells expressing luciferase (PK-9-td Tomato-luc2) were intraperitoneally injected into each nude mouse (Balb/cA Jcl nu/nu mice, female, distributor: CLEA Japan, Inc.). During a period from the day of the peritoneal dissemination to day 35, the peptide of the present invention RRRRRRRRRRR-GGG-MGLKMSCLKGFQMCV (SEQ ID NO: 4), the peptide RRRRRRRRRRR-GGG-MGLKMAAAKGFQAAA (SEQ ID NO: 8), or PBS was injected into the subcutaneous tissue in the vicinity of tumor five times per week (1 mg/kg/mouse). On days 3, 7, 14, 21, 28, and 35 after the peritoneal dissemination, tumor was imaged. The number of nodules was counted at the end of the peptide administration period.

inhibition at 40 µM ([2]; MIA PaCa-2, Miapaca2 cells): ≥ 60% | inhibition at 40 µM ([2]; PANC-1, Panc1 cells): ≥ 60% | inhibition at 30 µM ([2]; PK9, PK-9 cells): ~60% | inhibition at 30 µM ([2]; PK-1 cells): ~60%
Compound: CSCC[C@H](NC(=O)CNC(=O)CNC(=O)CNC(=O)[C@H](CCCNC(=N)N)NC(=O)[C@H](CCCNC(=N)N)NC(=O)[C@H](CCCNC(=N)N)NC(=O)[C@H](CCCNC(=N)N)NC(=O)[C@H](CCCNC(=N)N)NC(=O)[C@H](CCCNC(=N)N)NC(=O)[C@H](CCCNC(=N)N)NC(=O)[C@H](CCCNC(=N)N)NC(=O)[C@H](CCCNC(=N)N)NC(=O)[C@H](CCCNC(=N)N)NC(=O)[C@@H](N)CCCNC(=N)N)C(=O)NCC(=O)N[C@@H](CC(C)C)C(=O)N[C@@H](CCCCN)C(=O)N[C@@H](CCSC)C(=O)N[C@@H](CO)C(=O)N[C@@H](CS)C(=O)N[C@@H](CC(C)C)C(=O)N[C@@H](CCCCN)C(=O)NCC(=O)N[C@@H](Cc1ccccc1)C(=O)N[C@@H](CCC(N)=O)C(=O)N[C@@H](CCSC)C(=O)N[C@@H](CS)C(=O)N[C@H](C(=O)O)C(C)C [SEQ ID NO: 4, RRRRRRRRRRR-GGG-MGLKMSCLKGFQMCV] (H-RRRRRRRRRRRGGGMGLKMSCLKGFQMCV-OH)
body weight of the animals [1]: exhibited a higher increasing tendency than the other administration groups

inhibition of dimer formation of C16orf74 protein (band of the dimer) [3]: the dimer formation was inhibited
Compound: RRRRRRRRR-GGG-MGLKMSCLKGFQMCV (RRRRRRRRRGGGMGLKMSCLKGFQMCV; fusion peptide) [SEQ ID NO: 6, C16orf74 N-terminal 15 amino acids bonded to 9-arginine signal via a GGG tag]

Compound: RRRRRRRRRRR-GGG-MGLKMAAAKGFQAAA (RRRRRRRRRRRGGGMGLKMAAAKGFQAAA; fusion peptide) [SEQ ID NO: 8, control peptide, cysteines 7 and 14 and their neighbouring residues converted into alanine]
change over time in tumor fluorescence intensity [1]: exhibited increase in fluorescence intensity | course of tumor volume [4]: the tumor volume increased | inhibition of the dimer formation ([2]; any of the cells (PK-1, PK-9, Panc-1, Miapaca-2, NHDFs)): no inhibition of the dimer formation was found | survival of tumor cells (tumor imaging) [5]: The survival of tumor cells was not suppressed

Compound: RRRRRRRRRRR-GGG-MGLKMSALKGFQMAV (RRRRRRRRRRRGGGMGLKMSALKGFQMAV; fusion peptide) [SEQ ID NO: 7, control peptide, cysteine residues at 7th and 14th positions converted into alanine]
inhibition of the dimer formation ([2]; PK-1 and PK-9 cells): the inhibition was weaker than in using 11R-C16orf74-DB | inhibition of the dimer formation ([2]; Panc1, Miapaca2 and NHDFs): Almost no inhibition of the dimer formation was found
